Measured values as given in patent US20130295036A1, “METHOD OF USING WOOD EXTRACTS IN COSMETIC AND HYGIENE PRODUCTS” (FLAVITPURE, INC., priority 2012, published 2013).

Experiments:
[1] = test system: 5-LOX mediated LT biosynthesis; test: Leukotriene (LT) biosynthesis inhibition; format: biochemical
Excerpt: (§1) The body's early defense in response to trauma, inflammation or infection, the acute phase response (APR), is a complex set of systemic reactions seen shortly after exposure to a triggering event. The APR is induced by protein hormones called cytokines acting as messengers between the local site of injury and the hepatocytes synthesizing the acute phase proteins such as serum amyloid A. Most cytokines have multiple sources, targets and multiple functions. The pro-inflammatory cytokines can be divided into two major groups with respect to acute phase proteins inductions, the Interleukin-1 (IL-1) type (including Tumor Necrosis Factor-a, TNF-a) and the IL-6 type cytokines (including IL-6 cytokine). These cytokines are secreted primarily by monocytes activated by bacterial toxins or in response to local tissue injury.

COX-2 = molecular target: T1, COX-2 (Homo sapiens, UniProt P35354); test: COX-2 inhibition; format: biochemical
T1 sequence (P35354 18-604): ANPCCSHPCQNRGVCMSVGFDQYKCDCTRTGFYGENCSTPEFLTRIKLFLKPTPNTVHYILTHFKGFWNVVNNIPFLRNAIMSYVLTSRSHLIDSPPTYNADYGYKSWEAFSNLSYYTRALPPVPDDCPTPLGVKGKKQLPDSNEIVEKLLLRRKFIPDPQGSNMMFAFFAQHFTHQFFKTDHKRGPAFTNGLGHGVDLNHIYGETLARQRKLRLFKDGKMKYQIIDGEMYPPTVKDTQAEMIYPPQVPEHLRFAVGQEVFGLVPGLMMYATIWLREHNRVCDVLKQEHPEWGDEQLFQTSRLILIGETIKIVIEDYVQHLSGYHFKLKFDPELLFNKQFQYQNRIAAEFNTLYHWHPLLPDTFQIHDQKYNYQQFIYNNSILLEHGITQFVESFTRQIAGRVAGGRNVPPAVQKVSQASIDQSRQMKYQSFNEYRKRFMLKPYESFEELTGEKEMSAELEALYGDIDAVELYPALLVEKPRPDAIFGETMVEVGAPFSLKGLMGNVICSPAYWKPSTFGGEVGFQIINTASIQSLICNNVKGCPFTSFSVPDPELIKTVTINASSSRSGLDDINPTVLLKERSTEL
Excerpt: as §1

rats = details: high levels for long periods of time; cited from earlier work
[2] = test system: dendritic cells of bone marrow and spleen; details: cited from earlier work
serum and liver lipids = details: following exposure to toxic ionizing radiation; cited from earlier work
[3] = test system: Antioxidant Response Element; details: cited from earlier work
lipid peroxidation = details: in vitro and ex vivo; cited from earlier work

Question: For C=C[C@@]1(C)CC[C@H]2C(=CC[C@@H]3[C@]2(C)CCC[C@@]3(C)C(=O)O)C1 [Isopimaric acid], which “LT biosynthesis inhibitory activity” value [1] is on record?
Answer: potent inhibitor

Question: For CC(C)c1ccc2c(c1)CC[C@H]1[C@](C)(CO)CCC[C@]21C [dehydroabietinol], which “LT biosynthesis inhibitory activity” value [1] is on record?
Answer: high LT formation inhibitory activity

Question: What does the source list for CC(C)C1=CC2=C(CC1)[C@@]1(C)CCC[C@@](C)(C(=O)O)[C@@H]1CC2 [palustric acid]?
Answer: COX-2 inhibitory activity (COX-2): moderate; LT biosynthesis inhibitory activity [1]: less pronounced

Question: With C=CC(C)(O)CCC1C(=C)CC(OC(C)=O)C2C(C)(C)CCCC12C (stereo not shown) [Larixyl acetate] as the compound, how does the “LT biosynthesis inhibitory activity” value [1] read?
Answer: highly active

Question: With O=C1c2c(O)cc(O)cc2O[C@H](c2ccc(O)c(O)c2)[C@H]1O [Dihydroquercetin (taxifolin), (2R,3R)-2-(3,4-dihydroxyphenyl)-3,5,7-trihydroxy-chroman-4-one] as the compound, how does the toxic effects (rats) read?
Answer: No toxic effects

Question: What about the “production of cytokines, formation of ROS and NO, and change in intracellular Ca2+ levels” value [2] of the same compound?
Answer: significant inhibitory effect

Question: What about the “peroxidation of serum and liver lipids” value (serum and liver lipids) of the same compound?
Answer: inhibited

Question: And the “activation of Antioxidant Response Element” value [3]?
Answer: significantly activates

Question: And the “inhibition of lipid peroxidation” value (lipid peroxidation)?
Answer: inhibits lipid peroxidation
